The record followed here is ChEMBL document CHEMBL5108059, “Discovery of 2-Methyl-2-(4-(2-methyl-8-(1H-pyrrolo[2,3-b]pyridin-6-yl)-1H-naphtho[1,2-d]imidazol-1-yl)phenyl)propanenitrile as a Novel PI3K/mTOR Inhibitor with Enhanced Antitumor Efficacy In Vitro and In Vivo” (J Med Chem, 2022).

The test system of assay [1] is HeLa. As to the kind of experiment: Induction of apoptosis in human HeLa cells assessed as late apoptotic cells at 0.625 uM incubated for 36 hrs by Annexin V-FITC/PI staining based flow cytometric analysis (reference value: 1.4 %). In kind it is functional. (In general: In flow cytometry, cells or beads pass a laser one at a time.)
The subject of assay [2] is HeLa. As to the kind of experiment: Induction of apoptosis in human HeLa cells assessed as late apoptotic cells at 1.25 uM incubated for 36 hrs by Annexin V-FITC/PI staining based flow cytometric analysis (reference value: 1.4 %). In kind it is functional.
Assay [3] concerns the target Serine/threonine-protein kinase mTOR (Rattus norvegicus, UniProt P42346). The assay can be described thus: Inhibition of rat brain mTOR using GST-p70S6K fusion protein as substrate preincubated for 30 mins followed by ATP addition and measured after 30 mins by K-Lisa assay. Type of assay: tissue-based.
A further assay relates to SW-620. The assay can be described thus: Inhibition of colony formation in human SW620 cells assessed as reduction in colony forming ability incubated for 15 days by crystal violet staining based analysis. The settings on record: dose 0.15625-1.25 µM, time 15.0 day, DDE = dose-dependent effect. Type of assay: functional, cell-based.
Assay [4] deals with HeLa. As to the kind of experiment: Antiproliferative activity against human HeLa cells assessed as inhibition of cell growth incubated for 48 to 72 hrs by MTT assay. Type of assay: functional, cell-based.

Molecules are shown by their SMILES.

One may read the IC50 as the point on the concentration scale where inhibition reaches its midpoint. In the case of `Cc1nc2cnc3ccc(-c4cnc5[nH]ccc5c4)cc3c2n1-c1ccc(C(C)(C)C#N)nc1`, the Activity stood at 8.81% in the assay with HeLa [1] and 23.32% with HeLa [2]. Further, the values for the 50% inhibitory concentration (IC50) (in assay [3]; in the assay with HeLa [4]) were 20.7 nM and 90 nM, respectively. For the same molecule, in the assay with SW-620, the inhibition result is “Dde”.
